Earlier results in patent US20220235022A1 (priority 2019, published 2022).

Assays:
[1] = conjugate acid of the base, approximate values
[2] = compared with Δ^9-THC; reported

| SMILES | pKa (conjugate acid in DMSO) [1] | less potent in terms of psychoactivity [2] |
| --- | --- | --- |
| Cc1cccc(C)n1 [2,6-dimethylpyridine] | 4.46 | – |
| CCCCCc1cc(O)c2c(c1)OC(C)(C)[C@@H]1CC=C(C)C[C@@H]21 [Δ^8-THC, Δ^8-tetrahydrocannabinol] | – | approximately 50% |
